Experimental data: patent US20220073554A1, “LINCOSAMIDE ANTIBIOTICS AND USES THEREOF” (President and Fellows of Harvard College, priority 2017, published 2022)
≈ marks a conversion by molar mass, not a printed value. Read-outs that look alike come from different tables or passages of the source.

Assays:
Assay type in all cases: cell-based
[1] = system: S. aureus MP-513 clinical cErm; experiment: MIC against S. aureus MP-513 clinical cErm; settings: Staphylococcus aureus
E. coli ATCC 25922 = experiment: MIC against E. coli ATCC 25922; settings: Escherichia coli, ATCC25922
P. aeruginosa ATCC 27853 = experiment: MIC against P. aeruginosa ATCC 27853; settings: Pseudomonas aeruginosa, ATCC27853
E. coli MP-9 ΔTolC = experiment: MIC against E. coli MP-9 ΔTolC; settings: Escherichia coli
K. pneumoniae ATCC 10031 = experiment: MIC against K. pneumoniae ATCC 10031; settings: Klebsiella pneumoniae, ATCC10031
S. aureus ATCC 29213 = experiment: MIC against S. aureus ATCC 29213; settings: Staphylococcus aureus
S. pyogenes ATCC 19615 = experiment: MIC against S. pyogenes ATCC 19615; settings: Streptococcus pyogenes, ATCC19615
S. aureus MMX 3035 cErmA = experiment: MIC against S. aureus MMX 3035 cErmA; settings: Staphylococcus aureus, MMX3035CERMA
[2] = system: P. aeruginosa MMX 3476 Δmex; experiment: MIC against P. aeruginosa MMX 3476 Δmex; settings: Pseudomonas aeruginosa
[3] = system: E. coli MMX TolC parent strain; experiment: MIC against E. coli MMX TolC parent strain; settings: Escherichia coli
[4] = system: S. pneumoniae MMX 3028 cErmB; experiment: MIC against S. pneumoniae MMX 3028 cErmB; settings: Streptococcus pneumoniae, MMX3028CERMB
[5] = system: S. pneumoniae MMX 3031 cMefA; experiment: MIC against S. pneumoniae MMX 3031 cMefA; settings: Streptococcus pneumoniae, MMX3031CMEFA
E. faecalis ATCC 29212 = experiment: MIC against E. faecalis ATCC 29212; settings: Enterococcus faecalis
[6] = system: P. aeruginosa MMX Mex parent strain; experiment: MIC against P. aeruginosa MMX Mex parent strain; settings: Pseudomonas aeruginosa
H. influenzae ATCC 49247 = experiment: MIC against H. influenzae ATCC 49247; settings: Haemophilus influenzae, ATCC49247; H. influenzae ATCC 49247; read-out: MIC
C. difficile BAA 1805 = experiment: MIC against C. difficile BAA 1805; settings: Clostridioides difficile, BAA1805
[7] = system: S. pyogenes MMX 946 Macrolide-Resistant; experiment: MIC against S. pyogenes MMX 946 Macrolide-Resistant; settings: Streptococcus pyogenes
[8] = system: E. faecalis MMX 847 Macrolide-Resistant; experiment: MIC against E. faecalis MMX 847 Macrolide-Resistant; settings: Enterococcus faecalis
S. pneumoniae ATCC 49619 = experiment: MIC against S. pneumoniae ATCC 49619; settings: Streptococcus pneumoniae, ATCC49619; S. pneumoniae ATCC 49619; read-out: MIC
E. coli ATCC 15922 = experiment: MIC against E. coli ATCC 15922; settings: Escherichia coli, ATCC15922; E. coli ATCC 15922; read-out: MIC
[9] = system: S. aureus MP-549 msr(a) USA 300; experiment: MIC against S. aureus MP-549 msr(a) USA 300; settings: Staphylococcus aureus, USA300, S. aureus MP-549 msr(a) USA 300
S. aureus BAA 977 iErmA = experiment: MIC against S. aureus BAA 977 iErmA; settings: Staphylococcus aureus, BAA977
E. coli MMX 0121 ΔTolC = experiment: MIC against E. coli MMX 0121 ΔTolC; settings: Escherichia coli
[10] = system: E. coli MP-74 LptD mutant; experiment: MIC against E. coli MP-74 LptD mutant; settings: Escherichia coli
[11] = S. pyogenes ATCC 19615, read-out: MIC
[12] = S. aureus MMX 3035 cErmA, read-out: MIC
[13] = S. pneumoniae MMX 3028 cErmB, read-out: MIC
[14] = K. pneumoniae ATCC 10031, read-out: MIC

Structure (SMILES) | MIC [1] | MIC (E. coli ATCC 25922) | MIC (P. aeruginosa ATCC 27853) | MIC (E. coli MP-9 ΔTolC) | MIC (K. pneumoniae ATCC 10031) | MIC (S. aureus ATCC 29213; ATCC29213) | MIC [5] | MIC (S. pneumoniae ATCC 49619) | MIC (S. pyogenes ATCC 19615; [11]) | MIC (S. aureus MMX 3035 cErmA; [12]) | also measured
CSC1O[C@H]([C@H](NC(=O)[C@H]2NC[C@@H]3CN(C(=N)N)CCO[C@H]32)[C@H](C)Cl)C(O)[C@@H](O)[C@H]1O (stereo partly drawn) [FSA-504057] | > 64 µg/mL | > 64 µg/mL | > 64 µg/mL | > 64 µg/mL | > 64 µg/mL | > 64 µg/mL | – | – | – | – | –
CSC1O[C@H]([C@H](NC(=O)[C@H]2NC[C@H]3CC=CCO[C@H]32)[C@H](C)Cl)C(O)[C@@H](O)[C@H]1O (stereo partly drawn) [FSA-507051] | – | > 32 µg/mL | > 32 µg/mL | – | – | – | 1 µg/mL (≈ 2.29 µM) | 1 µg/mL (≈ 2.29 µM) | – | – | MIC (S. pyogenes ATCC 19615): 0.5 µg/mL (≈ 1.14 µM); MIC (S. aureus MMX 3035 cErmA): > 32 µg/mL; MIC [2]: > 32 µg/mL; MIC [3]: > 32 µg/mL; MIC [4]: > 32 µg/mL; MIC (E. faecalis ATCC 29212; ATCC29212): > 32 µg/mL; MIC [6]: > 32 µg/mL; MIC (H. influenzae ATCC 49247): 6 µg/mL (≈ 13.7 µM); MIC (C. difficile BAA 1805): > 32 µg/mL; MIC [7]: > 32 µg/mL; MIC [8]: > 32 µg/mL
CSC1O[C@H]([C@H](NC(=O)[C@H]2NC[C@@H]3C[C@@H](c4cc(F)cc(F)c4)CCO[C@H]32)[C@H](C)Cl)C(O)[C@@H](O)[C@H]1O (stereo partly drawn) [FSA-511080] | – | – | – | 4 µg/mL (≈ 7.26 µM) | – | – | ≤ 0.06 µg/mL | ≤ 0.06 µg/mL | ≤ 0.06 µg/mL | > 64 µg/mL | MIC [4, 13]: 8 µg/mL (≈ 14.5 µM); MIC (E. faecalis ATCC 29212; ATCC29212, read-out: MIC): 0.5 µg/mL (≈ 0.907 µM); MIC ([8]; E. faecalis MMX 847 MacRes, read-out: MIC): > 64 µg/mL; MIC (E. coli ATCC 15922): > 64 µg/mL
CCNC(=O)N1CCO[C@@H]2[C@H](CN[C@@H]2C(=O)N[C@H]([C@H](C)Cl)[C@H]2OC(SC)[C@H](O)[C@H](O)C2O)C1 (stereo partly drawn) [FSA-503004] | > 64 µg/mL | > 64 µg/mL | > 64 µg/mL | > 64 µg/mL | > 64 µg/mL | > 64 µg/mL | – | – | – | – | MIC [9]: > 64 µg/mL; MIC (S. aureus BAA 977 iErmA): > 64 µg/mL
CSC1O[C@H]([C@H](NC(=O)[C@H]2NC[C@@H]3CN(CC(=O)O)CCO[C@H]32)[C@H](C)Cl)C(O)[C@@H](O)[C@H]1O (stereo partly drawn) [FSA-504063] | > 64 µg/mL | > 64 µg/mL | > 64 µg/mL | > 64 µg/mL | > 64 µg/mL | > 64 µg/mL | – | – | – | – | –
CSC1O[C@H]([C@H](NC(=O)[C@H]2NC[C@@H]3C[C@H]4C[C@H]4CO[C@H]32)[C@H](C)Cl)C(O)[C@@H](O)[C@H]1O (stereo in doubt) [FSA-507007] | – | – | – | – | – | – | – | – | ≤ 0.06 µg/mL | > 64 µg/mL | MIC ([3]; E. coli MMX TolC parent strain, read-out: MIC): > 64 µg/mL; MIC (S. aureus BAA 977 iErmA): 0.5 µg/mL (≈ 1.11 µM); MIC ([6]; P. aeruginosa MMX Mex parent strain, read-out: MIC): > 64 µg/mL; MIC (H. influenzae ATCC 49247): 2 µg/mL (≈ 4.43 µM); MIC (E. coli ATCC 25922; E. coli ATCC 25922, read-out: MIC): > 64 µg/mL; MIC (P. aeruginosa ATCC 27853; P. aeruginosa ATCC 27853, read-out: MIC): > 64 µg/mL; MIC (C. difficile BAA 1805; C. difficile BAA 1805, read-out: MIC): 4 µg/mL (≈ 8.87 µM); MIC (E. coli MMX 0121 ΔTolC): 8 µg/mL (≈ 17.7 µM); MIC ([8]; E. faecalis MMX 847 Macrolide-Resistant (MacRes), read-out: MIC): > 64 µg/mL; MIC (K. pneumoniae ATCC 10031; [14]): > 64 µg/mL
CSC1O[C@H]([C@H](NC(=O)[C@H]2NC[C@@H]3C[C@@H](c4ccc(F)cc4F)CCO[C@H]32)[C@H](C)Cl)C(O)[C@@H](O)[C@H]1O (stereo partly drawn) [FSA-511078] | – | – | – | 2 µg/mL (≈ 3.63 µM) | – | – | ≤ 0.06 µg/mL | ≤ 0.06 µg/mL | ≤ 0.06 µg/mL | > 64 µg/mL | MIC [4, 13]: 4 µg/mL (≈ 7.26 µM); MIC [10]: 8 µg/mL (≈ 14.5 µM); MIC (E. coli ATCC 15922): > 64 µg/mL; MIC (K. pneumoniae ATCC 10031; [14]): 8 µg/mL (≈ 14.5 µM)
CSC1O[C@H]([C@H](NC(=O)[C@H]2NC[C@@H]3CN(Cc4ccnc(N)c4)CCO[C@H]32)[C@H](C)Cl)C(O)[C@@H](O)[C@H]1O (stereo partly drawn) [FSA-504049] | > 64 µg/mL | > 64 µg/mL | > 64 µg/mL | > 64 µg/mL | > 64 µg/mL | – | – | – | – | – | MIC [9]: 8 µg/mL (≈ 14.6 µM); MIC (S. aureus ATCC 29213; ATCC29213, S. aureus ATCC 29213, read-out: MIC): 14 µg/mL (≈ 25.6 µM)
